Values of other authors as cited in US8889663B2, “Formulation for oral transmucosal administration of lipid-lowering drugs” (priority 2008, dated 2014).

Experiments:
[1] = in vivo
[2] = oral, 20 mg or 40 mg dose

| SMILES | volume of organ and tissue space in which the active principle is distributed [1] | average known residual bioavailability [2] |
| --- | --- | --- |
| CC(C)c1c(C(=O)Nc2ccccc2)c(-c2ccccc2)c(-c2ccc(F)cc2)n1CC[C@@H](O)C[C@@H](O)CC(=O)O [atorvastatin] | exceeding 600 L | – |
| CC[C@H](C)C(=O)O[C@H]1C[C@H](O)C=C2C=C[C@H](C)[C@H](CC[C@@H](O)C[C@@H](O)CC(=O)O)[C@H]21 [provastatin] | – | around 17 % of the administered dose |
